Laboratory results from patent US20060069132A1, “Azolecarboxamide herbicides” (priority 2004, published 2006).

Key:
morningglory = test: Test A pre-/postemergence herbicide test; format: in vivo, Ipomoea spp.
Outline: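 Sandy loam soil given preemergence directed spray; plants at 2 to 10 cm, one- to two-leaf stage, sprayed to runoff postemergence, compounds in non-phytotoxic solvent with surfactant. Injury rated visually versus untreated controls after about ten greenhouse days, 0 (no effect) to 100 (complete control); dash means not tested.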

woolly cupgrass = test: Test C pre-/postemergence herbicide test; format: in vivo, Eriochloa villosa
Outline: (§1)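 Preemergence: seeds planted and treated with compound in non-phytotoxic solvent with surfactant; postemergence: plants at 2 to 18 cm (1- to 4-leaf stage) sprayed likewise. Kept in greenhouse 12 to 14 days, then visually rated against controls, 0 (no effect) to 100 (complete control).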

[1] = system: common (oilseed) sunflower; test: Test C pre-/postemergence herbicide test; format: in vivo, Helianthus annuus; settings: for Sunflower plant response rating: Preemergence, scale 0 to 100, 0 no effect, 100 complete control
Outline: as §1

giant foxtail = test: Test C pre-/postemergence herbicide test; format: in vivo, Setaria faberi
Outline: as §1

bermudagrass = test: Test C pre-/postemergence herbicide test; format: in vivo, Cynodon dactylon; settings: for Bermudagrass plant response rating: 500 g ai/ha
Outline: as §1

velvetleaf = test: Test C pre-/postemergence herbicide test; format: in vivo, Abutilon theophrasti
Outline: as §1

yellow nutsedge = test: Test C pre-/postemergence herbicide test; format: in vivo, Cyperus esculentus
Outline: as §1

[2] = Postemergence, 500 g ai/ha, 0 to 100 scale, 0 no effect, 100 complete control
[3] = Postemergence, 2000 g ai/ha, 0 to 100 scale, 0 no effect, 100 complete control
[4] = Preemergence, 2000 g ai/ha, visual rating, 0 to 100 scale (0 no effect, 100 complete control)
[5] = preemergence, 500 g ai/ha, visual injury, 0 to 100 scale (0 no effect, 100 complete control)
[6] = 62 g ai/ha, preemergence, scale 0 to 100
[7] = 125 g ai/ha, scale 0 (no effect) to 100 (complete control), visual, 12 to 14 days, preemergence
[8] = 250 g ai/ha, scale 0-100, preemergence
[9] = Preemergence, 500 g ai/ha, scale 0 to 100, 0 no effect, 100 complete control
[10] = 62 g ai/ha, preemergence, scale 0 to 100, 0 no effect, 100 complete control
[11] = Preemergence, scale 0 to 100, 0 no effect, 100 complete control
[12] = 250 g ai/ha, scale 0 to 100 (0 no effect, 100 complete control), visual, 12 to 14 days, preemergence
[13] = 500 g ai/ha, scale 0 to 100 (0 no effect, 100 complete control), visual, 12 to 14 days, preemergence
[14] = Postemergence, 500 g ai/ha, scale 0 to 100
[15] = Postemergence, 250 g ai/ha, scale 0 to 100, 0 no effect, 100 complete control
[16] = postemergence, 125 g ai/ha, scale 0 to 100
[17] = postemergence, 62 g ai/ha, scale 0 to 100

## CCN(CC)C(=O)c1cccc(NC(=O)c2sc(C(C)(C)C)nc2C)c1 [Compound 199]
morningglory; [2]
  Morningglory plant response rating: 45
morningglory; [3]
  Plant response rating, Morningglory: 70
morningglory; [4]
  Morningglory plant response rating: 55
morningglory; [5]
  Morningglory plant response rating: 15
Woolly cupgrass; [6]
  Plant response rating, Cupgrass, Woolly: 0
Woolly cupgrass; [7]
  Plant response rating, Cupgrass, Woolly: 0
Woolly cupgrass; [8]
  Plant response rating, Cupgrass, Woolly: 40
Woolly cupgrass; [9]
  Cupgrass, Woolly plant response rating: 70
[1]; [6]
  Plant response rating, Sunflower: 0
[1]; [7]
  Plant response rating, Sunflower: 0
[1]; [8]
  Plant response rating, Sunflower: 0
[1]; 500 g ai/ha
  Sunflower plant response rating: 0
Giant foxtail; [6]
  Plant response rating, Foxtail, Giant: 0
Giant foxtail; [7]
  Plant response rating, Foxtail, Giant: 10
Giant foxtail; [8]
  Plant response rating, Foxtail, Giant: 80
Giant foxtail; [9]
  Foxtail, Giant plant response rating: 100
bermudagrass; [10]
  Plant response rating, Bermudagrass: 55
bermudagrass; [7]
  Plant response rating, Bermudagrass: 85
bermudagrass; [8]
  Plant response rating, Bermudagrass: 100
bermudagrass; [11]
  Bermudagrass plant response rating: 100
velvetleaf; [6]
  Plant response rating, Velvetleaf: 10
velvetleaf; [7]
  Plant response rating, Velvetleaf: 70
velvetleaf; [8]
  Plant response rating, Velvetleaf: 85
velvetleaf; [9]
  Velvetleaf plant response rating: 85
Yellow nutsedge; [6]
  Plant response rating, Nutsedge, Yellow: 0
Yellow nutsedge; [7]
  Plant response rating, Nutsedge, Yellow: 0
Yellow nutsedge; [8]
  Plant response rating, Nutsedge, Yellow: 0
Yellow nutsedge; [9]
  Nutsedge, Yellow plant response rating: 0

## CCCCOc1cccc(NC(=O)c2cc(C(C)(C)C)nn2CC)c1 [Compound 137]
morningglory; [2]
  Morningglory plant response rating: 25
morningglory; [3]
  Plant response rating, Morningglory: 40
morningglory; Preemergence, 500 g ai/ha, visual rating, 0 to 100 scale (0 no effect, 100 complete control)
  Morningglory plant response rating: 20
morningglory; [4]
  Morningglory plant response rating: 35
Woolly cupgrass; 62 g ai/ha, preemergence
  Plant response rating (0 = no effect, 100 = complete control), Cupgrass, Woolly: 0
Woolly cupgrass; [7]
  Plant response rating, Cupgrass, Woolly: 0
Woolly cupgrass; [12]
  Plant response rating, Cupgrass, Woolly: 5
Woolly cupgrass; [9]
  Cupgrass, Woolly plant response rating: 40
[1]; 62 g ai/ha, preemergence
  Plant response rating (0 = no effect, 100 = complete control), Sunflower: 0
[1]; [7]
  Plant response rating, Sunflower: 0
[1]; 500 g ai/ha
  Sunflower plant response rating: 0
Giant foxtail; 62 g ai/ha, preemergence
  Plant response rating (0 = no effect, 100 = complete control), Foxtail, Giant: 10
Giant foxtail; [7]
  Plant response rating, Foxtail, Giant: 50
Giant foxtail; [12]
  Plant response rating, Foxtail, Giant: 60
Giant foxtail; [9]
  Foxtail, Giant plant response rating: 85
bermudagrass; 62 g ai/ha, preemergence
  Plant response rating (0 = no effect, 100 = complete control), Bermudagrass: 50
bermudagrass; [7]
  Plant response rating, Bermudagrass: 100
bermudagrass; [12]
  Plant response rating, Bermudagrass: 100
bermudagrass; [11]
  Bermudagrass plant response rating: 100
velvetleaf; [7]
  Plant response rating, Velvetleaf: 10
velvetleaf; [9]
  Velvetleaf plant response rating: 100
Yellow nutsedge; 62 g ai/ha, preemergence
  Plant response rating (0 = no effect, 100 = complete control), Nutsedge, Yellow: 0
Yellow nutsedge; [7]
  Plant response rating, Nutsedge, Yellow: 0
Yellow nutsedge; [9]
  Nutsedge, Yellow plant response rating: 0

## CCc1nc(C(C)(C)C)sc1C(=O)Nc1cccc(C(=O)NCC2CC2)c1 [Compound 212]
morningglory; [2]
  Morningglory plant response rating: 15
morningglory; [3]
  Plant response rating, Morningglory: 20
morningglory; [4]
  Morningglory plant response rating: 65
morningglory; [5]
  Morningglory plant response rating: 30
Woolly cupgrass; [6]
  Plant response rating, Cupgrass, Woolly: 0
Woolly cupgrass; [7]
  Plant response rating, Cupgrass, Woolly: 0
Woolly cupgrass; [8]
  Plant response rating, Cupgrass, Woolly: 20
Woolly cupgrass; [13]
  Plant response rating, Cupgrass, Woolly: 30
Woolly cupgrass; [14]
  Cupgrass, Woolly plant response rating: 40
Woolly cupgrass; [15]
  Plant response rating, Cupgrass, Woolly: 30
Woolly cupgrass; [16]
  Plant response rating, Cupgrass, Woolly: 5
Woolly cupgrass; [17]
  Plant response rating, Cupgrass, Woolly: 5
[1]; [6]
  Plant response rating, Sunflower: 0
[1]; [7]
  Plant response rating, Sunflower: 0
[1]; [8]
  Plant response rating, Sunflower: 0
[1]; [13]
  Plant response rating, Sunflower: 0
Giant foxtail; [6]
  Plant response rating, Foxtail, Giant: 0
Giant foxtail; [7]
  Plant response rating, Foxtail, Giant: 20
Giant foxtail; [8]
  Plant response rating, Foxtail, Giant: 20
Giant foxtail; [13]
  Plant response rating, Foxtail, Giant: 95
Giant foxtail; [14]
  Foxtail, Giant plant response rating: 60
Giant foxtail; [15]
  Plant response rating, Foxtail, Giant: 50
Giant foxtail; [16]
  Plant response rating, Foxtail, Giant: 20
Giant foxtail; [17]
  Plant response rating, Foxtail, Giant: 10
bermudagrass; [10]
  Plant response rating, Bermudagrass: 60
bermudagrass; [7]
  Plant response rating, Bermudagrass: 75
bermudagrass; [8]
  Plant response rating, Bermudagrass: 80
bermudagrass; Postemergence, scale 0 to 100
  Bermudagrass plant response rating: 50
bermudagrass; [15]
  Plant response rating, Bermudagrass: 10
bermudagrass; [11]
  Bermudagrass plant response rating: 100
bermudagrass; [16]
  Plant response rating, Bermudagrass: 0
bermudagrass; [17]
  Plant response rating, Bermudagrass: 0
velvetleaf; [6]
  Plant response rating, Velvetleaf: 20
velvetleaf; [7]
  Plant response rating, Velvetleaf: 100
velvetleaf; [8]
  Plant response rating, Velvetleaf: 100
velvetleaf; [13]
  Plant response rating, Velvetleaf: 100
velvetleaf; [14]
  Velvetleaf plant response rating: 70
velvetleaf; [15]
  Plant response rating, Velvetleaf: 50
velvetleaf; [17]
  Plant response rating, Velvetleaf: 0
Yellow nutsedge; [6]
  Plant response rating, Nutsedge, Yellow: 0
Yellow nutsedge; [7]
  Plant response rating, Nutsedge, Yellow: 0
Yellow nutsedge; [8]
  Plant response rating, Nutsedge, Yellow: 0
Yellow nutsedge; [13]
  Plant response rating, Nutsedge, Yellow: 0
Yellow nutsedge; [14]
  Nutsedge, Yellow plant response rating: 20
Yellow nutsedge; [15]
  Plant response rating, Nutsedge, Yellow: 20
Yellow nutsedge; [16]
  Plant response rating, Nutsedge, Yellow: 10
Yellow nutsedge; [17]
  Plant response rating, Nutsedge, Yellow: 0
